Values joined by “and” are separate entries in the source; they are usually repeats but may differ in a detail not shown here. Equal entries are not always repeated.
Tests used:
Type in all cases: cell-based, BALB/c mice
murine splenocytes [1] = experiment: Ex vivo murine splenocytes proliferation assay (Alamar Blue), Example I
Procedure: Ex vivo murine splenocytes proliferation assay. The splenocytes were isolated from 6- to 12-weeks-old female BALB/c mice (Charles River, St-Constant, QC, Canada) and cultured in the absence and presence of suboptimal concentration of ConA (0.5 μg/mL). The peptides were solubilized in complete RPMI medium, agitated overnight at 4° C. then the solutions were adjusted to pH 7. Thereafter, the peptide solutions were added at various final concentrations (10-2000 μg/mL, protein basis) to the wells of 96-well round-bottomed microplates, which were incubated at 37° C. at 80% relative humidity in a 5% CO2 atmosphere for 72 h (with ConA) or 96 h (without ConA). Cell proliferation was evaluated by the reduction of the fluorochrome Alamar Blue™ (BioSource international, Camarillo, Calif., USA), which was added into the wells for the last 24 h of the incubation periods. The fluorescence of the supernatants was monitored at an excitation wavelength of 560 nm and an emission wavelength of 590 nm using a fluorometer (Fluoroscan Ascent, Thermo Electron Inc., Milford, Mass., USA). The assays were performed in triplicate (three wells per sample) and data are expressed as stimulation indices (SI), and calculated using the following equations: […]

murine splenocytes [2] = experiment: as above; conditions: peptide 2000 μg/mL, FIG. 2
murine splenocytes [3] = experiment: Cytokine secretion in splenocyte culture supernatants by ELISA, Example I
Procedure: Cytokine analysis. The supernatants from 72 h-splenocytes cultures were collected and their cytokine content was measured. The optimal incubation times were determined from preliminary assays with peptide fractions. The levels of IL-4, IL-10 and IFN-γ were determined using commercial ELISA kits (BioLegend, San Diego, Calif., USA) according to the manufacturer's instructions. Interleukin-2 levels were also measured by ELISA using a commercial kit (BioSource International, Camarillo, Calif., USA) according to the manufacturer's instructions. The results are the means of four or more assays (three wells per sample). The detection limits for IL-2, IL-4, IL-10 and IFN-γ were <8.0, <1.0, <30.0 and <4.0 pg/mL, respectively.
Cytokine analysis were performed at concentration leading to optimal spleen cells proliferation of peptide β-Lg f139-148 (SEQ ID NO. 1) (2000 μg/mL) as reported in Tables 2 and 3. The sequence β-Lg f78-83 (SEQ ID NO. 10), resulting in no effect on the cytokine secretion of resting- and ConA-stimulated murine splenocytes (results not shown), was used as control at concentration of 10 μg/mL for statistical analysis. The effects of the selected peptide on cytokine secretion from splenocytes cultured in the absence and presence of 0.5 μg/mL of ConA are shown in Table 5.

[4] = splenocytes with ConA 0.5 μg mL^−1, control peptide 10 μg/mL
[5] = splenocytes without ConA, control peptide 10 μg/mL

## IPAVFK (listed as Homo sapiens) [β-Lg f78-83, β-lactoglobulin fragment 78-83 used as control peptide, reference compound]
Murine splenocytes [1]; all concentrations studied (10-2000 μg/mL), ConA 0.5 μg/mL, FIG. 1B
  Effect on the proliferation of ConA-stimulated murine splenocytes: no effect
Murine splenocytes [1]; all concentrations studied (10-2000 μg/mL), FIG. 1A
  Effect on the proliferation of resting murine splenocytes: no effect
Murine splenocytes [1]; peptide 10 μg mL^−1, 72 h, ConA 0.5 μg/mL
  Stimulation index, proliferation of murine splenocytes in the presence of Concavanalin A: 2.10 and 1.91 and 1.93 and 1.68
Murine splenocytes [1]; peptide 10 μg mL^−1, 96 h, without ConA
  Stimulation index, proliferation of resting murine splenocytes: 0.98 and 1.00 and 1.11 and 1.02 and 1.04
Murine splenocytes [2]
  Microscopic appearance of resting- and ConA-stimulated cultured cells: no effect on the appearance of cultured cells
Murine splenocytes [3]; results not shown
  Effect on the cytokine secretion of resting- and ConA-stimulated murine splenocytes: no effect
Murine splenocytes [3]; [4]
  IFN-γ secretion in supernatant: 252.9 pg/mL
  IL-2 secretion in supernatant: 15.6 pg/mL
  IL-4 secretion in supernatant: 4.4 pg/mL
  IL-10 secretion in supernatant: <30.0 pg/mL
Murine splenocytes [3]; [5]
  IFN-γ secretion in supernatant: 7.1 pg/mL
  IL-2 secretion in supernatant: 10.0 pg/mL
  IL-4 secretion in supernatant: <1.0 pg/mL
  IL-10 secretion in supernatant: <30.0 pg/mL
